Measurements: ChEMBL document CHEMBL3044672, “N9- and N7-(Chloromethyl Phenymethyl)Chloropurine Derivatives from , '-Dichloroxylenes: Synthesis and Anticancer Activity” (2005)

Experiments:
Assay type in all cases: functional
[1] = system: RPMI-8226; test: Cytotoxicity against Homo sapiens (human) RPMI8226 cells after 48 hr by sulforhodamine B assay; conditions: RPMI-8226, 48 h
[2] = system: MDA-MB-231; test: Cytotoxicity against Homo sapiens (human) MDA-MB-231 cells after 48 hr by sulforhodamine B assay; conditions: MDA-MB-231, 48 h
[3] = system: 786-0; test: Cytotoxicity against Homo sapiens (human) 786-0 cells after 48 hr by sulforhodamine B assay; conditions: 786-0, 48 h
[4] = system: NCI-H460; test: Cytotoxicity against Homo sapiens (human) NCI-H460 cells assessed as cell growth at 10^-4 M after 48 hr by Alamar blue assay; conditions: NCI-H460, 48 h, read-out: Activity
[5] = system: NCI-H522; test: Cytotoxicity against Homo sapiens (human) NCI-H522 cells after 48 hr by sulforhodamine B assay; conditions: NCI-H522, 48 h
[6] = system: SW-620; test: Cytotoxicity against Homo sapiens (human) SW620 cells after 48 hr by sulforhodamine B assay; conditions: SW-620, 48 h
[7] = system: MDA-MB-435; test: Cytotoxicity against Homo sapiens (human) MDA-MB-435 cells after 48 hr by sulforhodamine B assay; conditions: MDA-MB-435, 48 h
[8] = system: SF-539; test: Cytotoxicity against Homo sapiens (human) SF539 cells after 48 hr by sulforhodamine B assay; conditions: SF-539, 48 h
[9] = system: K562; test: Cytotoxicity against Homo sapiens (human) K562 cells after 48 hr by sulforhodamine B assay; conditions: K562, 48 h
[10] = system: SNB-19; test: Cytotoxicity against Homo sapiens (human) SNB19 cells after 48 hr by sulforhodamine B assay; conditions: SNB-19, 48 h
[11] = system: A549; test: Cytotoxicity against Homo sapiens (human) A549 cells after 48 hr by sulforhodamine B assay; conditions: A549, 48 h
[12] = system: OVCAR-4; test: Cytotoxicity against Homo sapiens (human) OVCAR4 cells after 48 hr by sulforhodamine B assay; conditions: OVCAR-4, 48 h
[13] = system: Hs-578T; test: Cytotoxicity against Homo sapiens (human) Hs 578T cells after 48 hr by sulforhodamine B assay
[14] = system: NCI-H226; test: Cytotoxicity against Homo sapiens (human) NCI-H226 cells after 48 hr by sulforhodamine B assay; conditions: NCI-H226, 48 h
[15] = system: SN12C; test: Cytotoxicity against Homo sapiens (human) SN12C cells after 48 hr by sulforhodamine B assay
[16] = system: SF-268; test: Cytotoxicity against Homo sapiens (human) SF268 cells assessed as cell growth at 10^-4 M after 48 hr by […] assay; conditions: SF-268, 48 h, read-out: Activity
[17] = system: HCT-116; test: Cytotoxicity against Homo sapiens (human) HCT116 cells after 48 hr by sulforhodamine B assay; conditions: HCT-116, 48 h
[18] = system: HCT-15; test: Cytotoxicity against Homo sapiens (human) HCT15 cells after 48 hr by sulforhodamine B assay; conditions: HCT-15, 48 h
[19] = system: SNB-75; test: Cytotoxicity against Homo sapiens (human) SNB75 cells after 48 hr by sulforhodamine B assay; conditions: SNB-75, 48 h
[20] = system: KM12; test: Cytotoxicity against Homo sapiens (human) KM12 cells after 48 hr by sulforhodamine B assay; conditions: KM12, 48 h
[21] = system: UACC-257; test: Cytotoxicity against Homo sapiens (human) UACC257 cells after 48 hr by sulforhodamine B assay; conditions: UACC-257, 48 h
[22] = system: A498; test: Cytotoxicity against Homo sapiens (human) A498 cells after 48 hr by sulforhodamine B assay; conditions: A498, 48 h
[23] = system: COLO 205; test: Cytotoxicity against Homo sapiens (human) COLO205 cells after 48 hr by sulforhodamine B assay; conditions: COLO 205, 48 h
[24] = system: UACC-62; test: Cytotoxicity against Homo sapiens (human) UACC62 cells after 48 hr by sulforhodamine B assay; conditions: UACC-62, 48 h
[25] = system: ACHN; test: Cytotoxicity against Homo sapiens (human) ACHN cells after 48 hr by sulforhodamine B assay
[26] = system: TK-10; test: Cytotoxicity against Homo sapiens (human) TK10 cells after 48 hr by sulforhodamine B assay; conditions: TK-10, 48 h
[27] = read-out: LC50 (the source's name)

`ClCc1ccc(Cn2cnc3nc(Cl)nc(Cl)c32)cc1` gave a GI50 [1] of 1.65 µM, a TGI [1] of 28.2 µM and a CC50 [1, 27] of 97.7 µM. It also gave a GI50 [2] of 1.62 µM, an LC50 [2] of 6.02 µM and a TGI [2] of 3.09 µM. For the same compound, the GI50 [3] was 1.9 µM, the LC50 [3] was 7.41 µM and the TGI [3] was 3.71 µM. For the same compound, the growth at 100 µM [4] was 0%, the GI50 [5] was 1.77 µM and the TGI [5] was 4.57 µM. It also gave a CC50 [5, 27] of 38 µM, a GI50 [6] of 13.2 µM and a TGI [6] of 28.8 µM. It also gave a CC50 [6, 27] of 64.6 µM, a GI50 [7] of 1.62 µM and an LC50 [7] of 5.75 µM. It also gave a TGI [7] of 3.01 µM, a GI50 [8] of 1.86 µM and an LC50 (concentration killing 50% of cells) [8] of 5.88 µM. It also gave a TGI [8] of 3.31 µM, a GI50 [9] of 3.31 µM and a TGI [9] of over 100 µM. For the same compound, the CC50 [9, 27] was over 100 µM, the GI50 [10] was 29.5 µM and the LC50 [10] was over 100 µM. It also gave a TGI [10] of over 100 µM, a GI50 [11] of 2.13 µM and a TGI [11] of 4.07 µM. It also gave a CC50 [11, 27] of 7.94 µM, a GI50 [12] of 2.08 µM and a TGI [12] of 4.16 µM. For the same compound, the GI50 [13] was 19.1 µM, the LC50 [13] was over 100 µM and the TGI [13] was 44.7 µM. It also gave a GI50 [14] of 1.23 µM, a TGI [14] of 3.89 µM and a CC50 [14, 27] of 15.5 µM. For the same compound, the GI50 [15] was 1.86 µM, the LC50 (50% lethal concentration) [15] was 6.6 µM and the TGI [15] was 3.46 µM. For the same compound, the growth at 100 µM [16] was 0%, the GI50 [17] was 0.12 µM and the TGI [17] was 1.24 µM. For the same compound, the CC50 [17, 27] was over 100 µM, the GI50 [18] was 1.81 µM and the TGI [18] was 3.54 µM. For the same compound, the CC50 [18, 27] was 6.76 µM, the GI50 [19] was 2.08 µM and the TGI [19] was 3.98 µM. It also gave a CC50 [19, 27] of 7.41 µM, a GI50 [20] of 0.26 µM and a TGI [20] of 0.67 µM. For the same compound, the CC50 [20, 27] was 2.45 µM, the GI50 [21] was 2.23 µM and the LC50 (concentration killing 50% of cells) [21] was 34.7 µM. For the same compound, the TGI [21] was 5.49 µM, the GI50 [22] was 11.2 µM and the LC50 (lethal concentration, 50% cell kill) [22] was 49 µM. The TGI [22] was 23.4 µM, the GI50 [23] was 17.4 µM and the TGI [23] was over 100 µM. The CC50 [23, 27] was over 100 µM, the GI50 [24] was 1.65 µM and the LC50 (concentration causing 50% net cell kill) [24] was 6.02 µM. For the same compound, the TGI [24] was 3.16 µM, the GI50 [25] was 1.9 µM and the TGI [25] was 3.31 µM. The CC50 [25, 27] was 5.75 µM, the GI50 [26] was 0.12 µM and the TGI [26] was 0.29 µM. It also gave a CC50 [26, 27] of 0.72 µM.
